Measured values from US20050004167A1, “Branched chain amino acid-dependent aminotransferase inhibitors and their use in the treatment of neurodegenerative diseases” (WARNER-LAMBERT COMPANY LLC, priority 2001, published 2005).
“And” between values parts separate entries of the source, which are not always exact repeats. Equal values may be shown once.

How the values were obtained:
[1] = target: T1, human Branched Chain Amino Acid Aminotransferase cytosolic form (hBCATc) (Homo sapiens, UniProt P54687); assay: In vitro coupled enzyme assay (glutamate dehydrogenase, NADH formation), human BCATc; format: biochemical; details: recombinant human BCATc, 37° C., 25 mM phosphate buffer pH 7.8; several values in a cell = repeat determinations; read-out: RhBCATc
T1 construct: made in house; host or cells: E. coli BL21(DE3)
T1 sequence (P54687 1-386): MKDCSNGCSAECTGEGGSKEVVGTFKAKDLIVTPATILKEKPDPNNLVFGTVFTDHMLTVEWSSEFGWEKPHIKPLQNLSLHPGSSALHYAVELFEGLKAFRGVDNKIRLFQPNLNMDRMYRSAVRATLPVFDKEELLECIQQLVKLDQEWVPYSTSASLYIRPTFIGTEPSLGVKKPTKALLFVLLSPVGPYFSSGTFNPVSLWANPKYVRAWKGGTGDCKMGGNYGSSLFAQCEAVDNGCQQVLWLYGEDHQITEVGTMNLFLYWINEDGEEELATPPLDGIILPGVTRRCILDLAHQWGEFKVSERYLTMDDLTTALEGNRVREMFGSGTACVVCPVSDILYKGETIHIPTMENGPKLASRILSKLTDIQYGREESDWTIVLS
Outline: (§1)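 At 37 °C in 25 mM phosphate pH 7.8 with 2 mM DTT, 1.25 μg His-tag-purified E. coli-expressed BCAT transaminated 750 μM L-leucine with 500 μM α-ketoglutarate and 10 μM PLP. Glutamate was coupled via glutamate dehydrogenase (1 mM NAD+, 4 mM ADP) to NADH formation at 340 nm. Compounds were added in DMSO up to 5% v/v.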

rat BCAT cytosolic form = target: T2, rat BCAT cytosolic form (Rattus norvegicus, UniProt P54690); assay: In vitro coupled enzyme assay (glutamate dehydrogenase, NADH formation), rat BCATc; format: biochemical; details: recombinant rat BCATc, 37° C., 25 mM phosphate buffer pH 7.8; several values in a cell = repeat determinations; read-out: RrBCATc
T2 construct: made in house; host or cells: E. coli BL21(DE3)
T2 sequence (P54690 1-411): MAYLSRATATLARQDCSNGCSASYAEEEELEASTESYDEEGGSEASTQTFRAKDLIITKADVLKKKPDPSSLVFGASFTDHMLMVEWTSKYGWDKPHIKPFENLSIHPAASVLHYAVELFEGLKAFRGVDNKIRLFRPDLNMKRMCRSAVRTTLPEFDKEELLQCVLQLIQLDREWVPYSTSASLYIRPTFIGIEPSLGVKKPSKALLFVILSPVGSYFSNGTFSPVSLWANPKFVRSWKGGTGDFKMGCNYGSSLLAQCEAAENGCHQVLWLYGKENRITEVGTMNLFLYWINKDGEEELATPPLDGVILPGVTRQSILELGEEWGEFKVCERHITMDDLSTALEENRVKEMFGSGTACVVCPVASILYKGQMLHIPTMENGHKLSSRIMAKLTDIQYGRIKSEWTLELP
Outline: as §1

Row | IC50 [1] | melting point [°C] | IC50 (rat BCAT cytosolic form) | Structure (SMILES)
1 | 25 µM | 204.6 to 206.2 | 5.7 µM | O=C(NNS(=O)(=O)c1ccc(F)cc1Cl)c1cc2cc(Cl)ccc2o1 [Example 30, 2-Benzofurancarboxylic acid, 5-chloro-, 2-[(2-chloro-4-fluorophenyl)sulfonyl]-hydrazide]
2 | 5.76 µM and 3 µM | 164 to 165 | 0.86 µM and 0.46 µM and 0.53 µM | COc1cccc2cc(C(=O)NNS(=O)(=O)c3ccccc3)oc12 [Example 5, 7-Methoxy-2-benzofurancarboxylic acid 2-(phenylsulfonyl)hydrazide]
3 | 24.6 µM | 229.4 to 230.5 | 4.1 µM | O=C(NNS(=O)(=O)c1ccc(F)cc1)c1cc2cc(Cl)ccc2o1 [Example 22, 2-Benzofurancarboxylic acid, 5-chloro-2-[(4-fluorophenyl)]sulfonyl hydrazide]
4 | 3.57 µM | 222.6 to 223.3 | 0.31 µM | O=C(NNS(=O)(=O)c1cccc(F)c1)c1ccc2oc3ccccc3c2c1 [Example 35, 2-Dibenzofurancarboxylic acid 2-[(3-fluorophenyl)sulfonyl]hydrazide]
5 | 4.86 µM and 8.8 µM | 174.4 to 174.7 | 1 µM | O=C(NNS(=O)(=O)c1cccc(F)c1)c1cc2cc(Cl)ccc2o1 [Example 40, 2-Benzofurancarboxylic acid, 5-chloro-2-[(3-fluorophenyl)sulfonyl]hydrazide]
6 | 5.18 µM and 9.1 µM | 209.6 to 211.2 | 1.3 µM | Cc1ccc(F)cc1S(=O)(=O)NNC(=O)c1cc2cc(Cl)ccc2o1 [Example 50, 2-Benzofurancarboxylic acid, 5-chloro-2-[(5-fluoro-2-methylphenyl)sulfonyl]-hydrazide]
7 | 11.6 µM | 245.6 to 247.6 | 0.43 µM | O=C(NNS(=O)(=O)c1ccccc1C(F)(F)F)c1cc2cc(Cl)cc(Cl)c2o1 [Example 70]
8 | 4.21 µM and 7.6 µM | 204.3 to 204.6 | 0.91 µM | COc1cccc(S(=O)(=O)NNC(=O)c2cc3cc(Cl)ccc3o2)c1 [Example 48, 2-Benzofurancarboxylic acid, 5-chloro-2-[(3-methoxyphenyl)sulfonyl]hydrazide]
9 | 28.8 µM | 193.8 to 195 | 14.5 µM | O=C(NNS(=O)(=O)c1ccc(F)c(F)c1)c1cc2cc(Cl)ccc2o1 [Example 41, 2-Benzofurancarboxylic acid, 5-chloro-2-[(3,4-difluorophenyl)sulfonyl]hydrazide]
10 | 2.6 µM and 4.3 µM | 242.5 to 243.3 | 0.81 µM | O=C(NNS(=O)(=O)c1cc(Cl)cc(Cl)c1)c1cc2cc(Cl)ccc2o1 [Example 31, 2-Benzofurancarboxylic acid, 5-chloro-, 2-[(3,5-dichlorophenyl)sulfonyl]-hydrazide]
11 | 3.86 µM | 216.4 to 218.1 | 0.05 µM | O=C(NNS(=O)(=O)c1ccccc1)c1cc2cc(Cl)cc(Cl)c2o1 [Example 69, 2-Benzofurancarboxylic acid, 5,7-dichloro 2-(phenylsulfonyl)sulfonyl hydrazide]
12 | 2.19 µM | 218.2 to 219.8 | 0.3 µM | O=C(NNS(=O)(=O)c1ccccc1OC(F)(F)F)c1cc2cc(Cl)ccc2o1 [Example 52, 2-Benzofurancarboxylic acid, 5-chloro-2-[[2-(trifluoromethoxy)phenyl]sulfonyl]-hydrazide]
13 | 2.29 µM | 218.1 to 220 | 0.21 µM | O=C(NNS(=O)(=O)c1cccc(Br)c1)c1cc2cc(Cl)ccc2o1 [Example 45, 2-Benzofurancarboxylic acid, 5-chloro-2-[(3-bromophenyl)sulfonyl]hydrazide]
14 | 29.9 µM | 210.8 to 211.6 | 0.77 µM and 0.61 µM | O=C(NNS(=O)(=O)c1ccc(F)c(Cl)c1)c1ccc2oc3ccccc3c2c1 [Example 38, 2-Dibenzofurancarboxylic acid 2-[(3-chloro-4-fluorophenyl)sulfonyl]hydrazide]

Continued, compound first:

Row | Structure (SMILES) | IC50 [1] | melting point [°C] | IC50 (rat BCAT cytosolic form)
15 | COc1ccc2oc(C(=O)NNS(=O)(=O)c3ccccc3)c(OC)c2c1 [Example 58, 2-Benzofurancarboxylic acid, 3,5-dimethoxy-, 2-(phenylsulfonyl)hydrazide] | 3.57 µM | 172.2 to 173.8 | 0.22 µM
16 | O=C(NNS(=O)(=O)c1cc(Cl)cc(Cl)c1)c1ccc2oc3ccccc3c2c1 [Example 18, Dibenzofuran-2-carboxylic acid 2-(3,5-dichlorophenylsulfonyl)hydrazide] | 7.9 µM | 231 to 233 | 0.53 µM and 0.4 µM
17 | O=C(NNS(=O)(=O)c1ccc(F)cc1)c1ccc2oc3ccccc3c2c1 [Example 24, 2-Dibenzofurancarboxylic acid 2-[(4-fluorophenyl)sulfonyl]hydrazide] | 24 µM | 206.3 to 207 | 1.2 µM
18 | CCOc1c(C(=O)NNS(=O)(=O)c2ccccc2)oc2ccc(-c3ccccc3)cc12 [Example 66, 2-Benzofurancarboxylic acid, 3-ethoxy-5-phenyl-, 2-(phenylsulfonyl)hydrazide] | 1.38 µM | 184.3 to 184.6 | 0.15 µM
19 | COc1ccc2c(OC)c(C(=O)NNS(=O)(=O)c3ccccc3)oc2c1 [Example 59, 2-Benzofurancarboxylic acid, 3,6-dimethoxy-, 2-(phenylsulfonyl)hydrazide] | 3.42 µM | 174.8 to 175.2 | 0.12 µM
20 | N#Cc1cccc(S(=O)(=O)NNC(=O)c2ccc3oc4ccccc4c3c2)c1 [Example 26, 2-Dibenzofurancarboxylic acid 2-[(3-cyanophenyl)sulfonyl]hydrazide] | 138 µM | 234 to 236 | 15.2 µM and 6.9 µM
21 | O=C(NNS(=O)(=O)c1ccc(F)cc1Cl)c1ccc2oc3ccccc3c2c1 [Example 25, 2-Dibenzofurancarboxylic acid 2-[(2-chloro-4-fluorophenyl)sulfonyl]hydrazide] | 21.9 µM | 227.5 to 227.8 | 1.8 µM
22 | Cc1cccc(S(=O)(=O)NNC(=O)c2cc3cc(Cl)cc(Cl)c3o2)c1 [Example 72, 2-Benzofurancarboxylic acid, 5,7-dichloro 2-[(3-methylphenyl)sulfonyl]-hydrazide] | > 10 µM and 5.35 µM | 230.4 to 231.1 | 1.86 µM
23 | O=C(NNS(=O)(=O)c1ccccc1OC(F)(F)F)c1cnc2ccccc2c1 [Example 137, 3-Quinolinecarboxylic acid, 2-[(2-trifluoromethoxyphenyl)sulfonyl]hydrazide] | 41 µM | 175.1 to 175.9 | 14 µM
24 | Cc1ccc(F)cc1S(=O)(=O)NNC(=O)c1ccc2oc3ccccc3c2c1 [Example 36, 2-Dibenzofurancarboxylic acid 2-[(5-fluoro-2-methylphenyl)sulfonyl]hydrazide] | 17.5 µM and 18.2 µM | 210.1 to 210.5 | 1.1 µM
25 | O=C(NNS(=O)(=O)c1ccccc1)c1ccc2[nH]c3c(c2c1)CCCC3 [Example 2, 2,3,4,9-Tetrahydro-1H-carbazole-6-carboxylic acid 2-(phenylsulfonyl)hydrazide] | 2.6 µM | > 250 | 0.13 µM
